Laboratory results taken from patent publication US20240124483A1, “Methods for the Treatment of Fibrotic Disease” (SHY Therapeutics, LLC, priority 2021, published 2024).
Read-outs that look alike come from different tables or passages of the source.

Columns and labels:
KRas Q61H mutant = KRas Q61H mutant (Homo sapiens (Human), UniProt P01116, Q61H); experiment: Ras GTP Binding Domain Inhibition Assay, KRas Q61H mutant; conditions: 20 μM
Method: (§1) A Ras Superfamily Activity Assay (as disclosed in International Application No. PCT/US2018/038613, filed Jun. 20, 2018, which is incorporated by reference in its entirety) was used as a specific assay to evaluate compounds against the following for the following Ras Superfamily proteins: KRas wild type, KRas Q61H mutant, KRas G12C mutant, KRas G12D mutant, Rac-1, and Rho-A.
(§2) Buffer-I: • 25 mM Tris-HCl, pH 7.4 • 27 mM KCl • 137 mM NaCl • 1 mM MgCl2 • 1 mM DTT
(§3) Buffer-II: • 50 mM Tris-HCl, pH 7.0 • 1 mM MgCl2 • 1 mM DTT
(§4) The small GTPases proteins: KRas wild type. KRas Q61H mutant, KRas G12C mutant, KRas G12D mutants, Rac-1, and Rho-A were expressed as His-tagged proteins. In addition, the Guanosine nucleotide Exchange Factor (GEF) Sos protein (residues 556-1049) was expressed as a His-tagged protein. In cells, the guanine nucleotide exchange factor Sos protein promotes activation of Ras proteins by stimulating an exchange of GDP for GTP. The inclusion of Sos to the Ras GTP binding domain inhibition assay may be considered as an alternative representation of physiological cellular conditions for evaluating the inhibitory activity of some of the tested small molecules.
(§5) For the assay, all purified small GTPases proteins were diluted in Buffer-I or Buffer-II to a final concentration of 10-30 μg/mL. 200 μL of each diluted protein was added to a nickel-coated 96-well plate and incubated overnight at 4° C. Then the protein solution was discarded and 200 μL of Buffer-I or Buffer-II was added to each well in the presence of 1% DMSO. Compounds to be tested were added to the protein-coated wells at final concentration of 20 μM, and incubated for 3 hours at room temperature with and without 10-30 μg/mL of Sos added to the final hour of the incubation. When performing IC50 measurements a serial dilution of all tested concentrations was added. Then Cy3-GTP or Cy5-GTP was added to each well to a final concentration of 100 nM. The labeled GTP was incubated for 45 minutes at room temperature. Following GTP incubation, wells were washed 3× in Buffer-I or Buffer-II and 200 μL of Buffer-I or Buffer-II was added to each well. Following washes, the amount of bound labeled-GTP was measured using a SpectraMax M3 (Molecular Devices).

MiaPaca2 = MiaPaca2 proliferation; assay type: cell-based; conditions: Homo sapiens, MIA PaCa-2; for inhibition at 10 µM: read-out: % inh of proliferation in MiaPaca2
Rac-1 = Rac-1 (Homo sapiens (Human), UniProt P63000); experiment: Ras GTP Binding Domain Inhibition Assay, Rac-1; conditions: without SOS, read-out: Rac-1: % inh.
Method: as §1, §2, §3, §4, §5

Smad2/3 phosphorylation = experiment: Phospho-Smad2/3 Inhibition Assay in Panc-1 (western blot); assay type: cell-based; conditions: Homo sapiens; 10 μM, 3 hours; PANC-1 stimulated with 10 ng/ml TGF-b1 for 1 hour; read-out: % inh of Smad2/3 phosphorylation in PANC-1
Method: Cell lines: Human tumor-derived pancreatic cancer cell line Panc-1 and mouse muscle myoblast C2C12 were purchased from American Type Culture Collection and grown in complete DMEM-High Glucose, supplemented with penicillin (100 U/mL), streptomycin (100 μg/mL), and 10% heat-inactivated FBS at 37° C. in a humidified incubator with 5% CO2.
Method: Cells were plated at 350000 cells/well density in a 12-well plate, allowed 3 hours to adhere to the plate, then starved in the appropriate medium in the presence of 0.5% FBS overnight. The small molecules to be tested were added to the cells in the final concentration of 10 μM in the presence of 0.3% DMSO for 3 hours incubation at 37° C. For IC50 value determination, serial dilutions of compounds were added to cells under the same conditions. Next, Panc-1 cells were stimulated with 10 ng/ml TGF-b1 for 1 hour, and C2C12 cells were stimulated with 10 ng/ml TGF-b1 for 20 minutes (recombinant human TGF-b1, R&D Systems). After stimulation cells were lysed with lysis buffer containing 1% Triton X-100, EDTA, and Halt™ Protease & Phosphatase Inhibitor Cocktail (Thermo Scientific). Protein concentration was assessed by BCA protein assay (Thermo Scientific). Phosphorylation level of Smad2/Smad3 was determined by western blot.
Western blot protocol: Equal amounts of protein (15-50 μg) were separated by SDS-PAGE and transferred to nitrocellulose membranes (Invitrogen by Thermo Fisher Scientific). The membrane was stained with Ponceau S Stain (Boston BioProducts) to verify uniform protein loading. Membranes were blocked with 10% milk and phosphorylation levels of Smad2/Smad3 were assessed by incubating overnight at 4° C. with the following antibodies: Phospho-Smad2 (Ser465/467) and Phosph-Smad3 (Ser423/425), both from Cell Signaling Technology. Then the membranes were incubated with HRP-conjugated secondary antibody (Jackson Immunoresearch, West Grove, PA). Bands were incubated in Amersham ECL Prime Western Blotting Detection Reagent (GE Healthcare) and visualized using the ChemiDoc MP imaging system (Bio-Rad).

KRas G12C mutant = KRas G12C mutant (Homo sapiens (Human), UniProt P01116, G12C); experiment: Ras GTP Binding Domain Inhibition Assay, KRas G12C mutant
KRas G12C mutant, sequence (P01116 other isoform, or with tags, fused parts or gaps G12C): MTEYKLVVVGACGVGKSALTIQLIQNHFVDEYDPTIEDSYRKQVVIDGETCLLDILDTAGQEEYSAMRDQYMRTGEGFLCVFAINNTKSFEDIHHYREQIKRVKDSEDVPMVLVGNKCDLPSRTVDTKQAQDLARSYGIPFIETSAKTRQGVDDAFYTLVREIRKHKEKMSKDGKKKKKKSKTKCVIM
Method: as §1, §2, §3, §4, §5

[1] = + SOS, read-out: KRas Q61H mutant + SOS: % inh.
[2] = without SOS, read-out: KRas Q61H mutant: % inh.
[3] = + SOS, read-out: KRas G12C mutant + SOS: % inh.
[4] = without SOS, read-out: KRas G12C mutant: % inh.

KRas Q61H mutant, sequence (P01116 other isoform, or with tags, fused parts or gaps Q61H): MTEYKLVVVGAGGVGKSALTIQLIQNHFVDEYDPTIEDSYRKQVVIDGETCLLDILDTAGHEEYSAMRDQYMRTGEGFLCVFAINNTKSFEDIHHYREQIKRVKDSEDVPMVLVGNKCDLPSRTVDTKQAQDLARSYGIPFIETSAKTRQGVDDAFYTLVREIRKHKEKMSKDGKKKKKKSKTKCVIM

Compound	inhibition at 20 µM (KRas Q61H mutant; [1])	inhibition at 20 µM (KRas Q61H mutant; [2])	IC50 (MiaPaca2)	inhibition at 10 µM (MiaPaca2)	inhibition at 20 µM (Rac-1)	inhibition at 10 µM (Smad2/3 phosphorylation)	inhibition at 20 µM (KRas G12C mutant; [3])	inhibition at 20 µM (KRas G12C mutant; [4])
COc1cc(-c2sc3nc(-c4nccn4C)nc(N[C@@H]4CC[C@H](OC)C4)c3c2-c2ccccc2)ccn1 (racemic) [Compound 44, rac-N-((1R,3S)-3-Methoxycyclopentyl)-6-(2-methoxypyridin-4-yl)-2-(1-methyl-1H-imidazol-2-yl)-5-phenylthieno[2,3-d]pyrimidin-4-amine]	76 to 100%	26 to 45%	5 to 10 µM	76 to 100%	0%	76 to 100%	76 to 100%	26 to 45%
COc1cc(-c2sc3nc(-c4nccn4C)nc(N[C@@H]4CC[C@@H](OC)C4)c3c2-c2ccccc2)ccn1 (racemic) [Compound 47, N-((1R,3R)-3-Methoxycyclopentyl)-6-(2-methoxypyridin-4-yl)-2-(1-methyl-1H-imidazol-2-yl)-5-phenylthieno[2,3-d]pyrimidin-4-amine]	76 to 100%	46 to 75%	< 1 µM	76 to 100%	46 to 75%	76 to 100%	76 to 100%	46 to 75%
CO[C@H]1C[C@H](CNc2nc(-c3nccn3C)nc3sc(-c4ccn(C(C)C)n4)c(C)c23)C1 [Compound 16, 6-(1-Isopropyl-1H-pyrazol-3-yl)-N-(((1r,3r)-3-methoxycyclobutyl)methyl)-5-methyl-2-(1-methyl-1H-imidazol-2-yl)thieno[2,3-d]pyrimidin-4-amine]	46 to 75%	46 to 75%	< 1 µM	76 to 100%	26 to 45%	1 to 25%	46 to 75%	46 to 75%
COc1cccc(Nc2nc(-c3nccn3C)nc3sc(-c4ccn(C(C)C)n4)c(C)c23)c1 [Compound 17, 6-(1-Isopropyl-1H-pyrazol-3-yl)-N-(3-methoxyphenyl)-5-methyl-2-(1-methyl-1H-imidazol-2-yl)thieno[2,3-d]pyrimidin-4-amine]	46 to 75%	26 to 45%	5 to 10 µM	76 to 100%	26 to 45%	46 to 75%	76 to 100%	46 to 75%
COc1cccc(Nc2nc(-c3nccn3C)nc3sc(-c4ccn(C(C)C)n4)c(C)c23)n1 [Compound 18, 6-(1-Isopropyl-1H-pyrazol-3-yl)-N-(6-methoxypyridin-2-yl)-5-methyl-2-(1-methyl-1H-imidazol-2-yl)thieno[2,3-d]pyrimidin-4-amine]	46 to 75%	46 to 75%	< 1 µM	76 to 100%	46 to 75%	46 to 75%	46 to 75%	46 to 75%
COc1cc(Nc2nc(-c3nccn3C)nc3sc(-c4ccn(C(C)C)n4)c(C)c23)ncn1 [Compound 19, 6-(1-Isopropyl-1H-pyrazol-3-yl)-N-(6-methoxypyrimidin-4-yl)-5-methyl-2-(1-methyl-1H-imidazol-2-yl)thieno[2,3-d]pyrimidin-4-amine]	76 to 100%	76 to 100%	1 to 4.99 µM	76 to 100%	46 to 75%	76 to 100%	76 to 100%	46 to 75%
COCCOCCNc1nc(-c2nccn2C)nc2sc(-c3ccn(C(C)C)n3)c(C)c12 [Compound 21, 6-(1-Isopropyl-1H-pyrazol-3-yl)-N-(2-(2-methoxyethoxy)ethyl)-5-methyl-2-(1-methyl-1H-imidazol-2-yl)thieno[2,3-d]pyrimidin-4-amine]	76 to 100%	76 to 100%	5 to 10 µM	76 to 100%	76 to 100%	0%	76 to 100%	46 to 75%
Cc1c(-c2ccn(C(C)C)n2)sc2nc(-c3nccn3C)nc(NCCN3CCOCC3)c12 [Compound 22, 6-(1-Isopropyl-1H-pyrazol-3-yl)-5-methyl-2-(1-methyl-1H-imidazol-2-yl)-N-(2-morpholinoethyl)thieno[2,3-d]pyrimidin-4-amine]	76 to 100%	76 to 100%	5 to 10 µM	76 to 100%	76 to 100%	0%	76 to 100%	76 to 100%
Cc1c(-c2ccn(C(C)C)n2)sc2nc(-c3nccn3C)nc(NCCN3CCS(=O)(=O)CC3)c12 [Compound 23, 4-(2-((6-(1-Isopropyl-1H-pyrazol-3-yl)-5-methyl-2-(1-methyl-1H-imidazol-2-yl)thieno[2,3-d]pyrimidin-4-yl)amino)ethyl)thiomorpholine 1,1-dioxide]	76 to 100%	76 to 100%	> 10 µM	0%	46 to 75%	0%	76 to 100%	46 to 75%
CO[C@H]1CNC[C@@H](Nc2nc(-c3nccn3C)nc3sc(-c4ccn(C(C)C)n4)cc23)C1 [Compound 28, 6-(1-Isopropyl-1H-pyrazol-3-yl)-N-((3S,5R)-5-methoxypiperidin-3-yl)-2-(1-methyl-1H-imidazol-2-yl)thieno[2,3-d]pyrimidin-4-amine]	76 to 100%	46 to 75%	5 to 10 µM	76 to 100%	46 to 75%	0%	76 to 100%	76 to 100%
COCCn1c(-c2nccn2C)nc2sc(-c3ccn(C(C)C)n3)c(C)c2c1=O [Compound 29, 6-(1-Isopropyl-1H-pyrazol-3-yl)-3-(2-methoxyethyl)-5-methyl-2-(1-methyl-1H-imidazol-2-yl)thieno[2,3-d]pyrimidin-4(3H)-one]	76 to 100%	46 to 75%	5 to 10 µM	46 to 75%	0%	0%	76 to 100%	46 to 75%
